Test results as given in patent US11883416B2, “Methods and compositions for the treatment of IL13Ra2—overexpressing cancer” (CONSEJO SUPERIOR DE INVESTIGACIONES CIENTÍFICAS (CSIC), priority 2020, dated 2024).
“Also recorded” adds a separate entry of the source.

Experiments:
KM12SM cells [1] = test: MTT proliferation assay with IL-13; type: cell-based, human; settings: IL-13, Claramine 2 μM
Procedure: (§1) FIG. 5. […] B) KM12SM cells were subjected to cell adhesion. C) KM12SM and U87MG cells were subjected to MTT assays. The three cell lines were subjected to D) migration and E) invasion assays. All the experiments were done in the presence or absence of IL-13, Claramine and/or anti-IL13Rα2 blocking antibodies.
(§2) Proliferation assays have been previously described. To assess cell survival to oxidative stress, 10^4 cells were seeded per well on 96-well plates and incubated for 24 h in DMEM containing 1% serum in presence of 1 mM H2O2, followed by 1 h incubation with MTT. Cell viability was determined by A560 nm and compared with untreated cells.
(§3) Next, the effect of the PTP1B inhibitor Claramine on the pro-invasive effects of IL-13 was investigated. First, the cellular toxicity of Claramine was studied at different doses. Claramine at 5 μM caused around 50% decrease in cell survival, but had no effect at 2 μM, which was used in the remaining experiments (data not shown). […] The effects of Claramine on cell adhesion, migration, invasion, and, to a minor extent, proliferation mimicked the effects of PTP1B silencing in the three types of cancer cells (FIG. 5 B-E).

U87MG cells [2] = test: MTT proliferation assay with IL-13; type: cell-based, human; settings: IL-13, Claramine 2 μM
Procedure: as §1, §2, §3

KM12SM cells [3] = test: IL-13-triggered invasion assay; type: cell-based, human; settings: IL-13, Claramine 2 μM, trifluoroacetate salt
Procedure: as §1
(§4) Adhesion, wound healing and invasion assays have been previously reported.
as §3

A2780 cells [4] = test: IL-13-triggered invasion assay; type: cell-based, human; settings: A2780, IL-13, Claramine 2 μM; trifluoroacetate salt
Procedure: as §1, §4, §3

U87MG cells [5] = test: IL-13-triggered invasion assay; type: cell-based, human; settings: IL-13, Claramine 2 μM, trifluoroacetate salt
Procedure: as §1, §4, §3

U251 GBM cells = test: Western blot of EGF and IL-13 signaling (pEGFR Y1068, pPTP1B Y66, pSrc Y419); type: cell-based, human
Procedure: FIG. 6. […] (A) U251 cells were treated with EGF, IL-13 or both, with or without Claramine. Cell extracts were analyzed by western blot to detect pEGFR Y1068, pPTP1B Y66, and pSrc Y419. B) U251 cells silenced for EGFR, IL13Rα2 or control cellswere treated with EGF or IL-13 in the presence or absence of Claramine. Cells were lysed and whole extracts were analyzed by western blot to detect pEGFR Y1068, pPTP1B Y66 and pSrc Y419.
(§5) Western blot assays were done as previously described.
EGFR is a substrate of PTP1B and might cooperate with IL13Rα2 in GBM invasion. To determine whether PTP1B participates in the modulation of the EGFR pathway besides the IL13Rα2, the effect of Claramine on EGF and IL-13 signaling in GBM was investigated. […] PTP1B Tyr66 was also phosphorylated by EGF and IL-13, indicating the participation of PTP1B in both pathways.

KM12SM cells [6] = test: IL-13-triggered migration (wound healing) assay; type: cell-based, human; settings: IL-13, Claramine 2 μM, trifluoroacetate salt
Procedure: as §1, §4, §3

A2780 cells [7] = test: IL-13-triggered migration (wound healing) assay; type: cell-based, human; settings: A2780, IL-13, Claramine 2 μM; trifluoroacetate salt
Procedure: as §1, §4, §3

U87MG cells [8] = test: IL-13-triggered migration (wound healing) assay; type: cell-based, human; settings: IL-13, Claramine 2 μM, trifluoroacetate salt
Procedure: as §1, §4, §3

U251 cells [9] = test: GBM subcutaneous xenograft tumor growth; type: in vivo, NSG mice
Procedure: (§6) FIGS. 7A-7E show PTP1B inhibition increases survival in CRC and glioblastoma mouse models. […] Murine β-actin amplification was used as a loading control.
(§7) For GBM xenografts, NSG mice were subcutaneously inoculated with U251 cells. Then, mice were treated intraperitoneally with 7 doses of Claramine (every three days) starting day 15 after implantation (a total of 2 mg/kg of body weight). The size of subcutaneous tumors was measured every 2 days. After euthanasia, tumors were isolated and the extracts subjected to Western blot analysis to determine IL13Rα2 and PTP1B activation. Liver homing and metastasis experiments in Swiss nude mice have been described. For CRC metastasis, mice were treated with the same dose of Claramine as above. Animals were weighed to study the effects on food intake and tolerance to the treatment.
Next, the in vivo effect of Claramine on GBM tumor growth and intracranial inoculation was investigated. First, mice were subcutaneously inoculated with U251 cells and xenografts were allowed to grow for 15 days before starting i.p. treatment with Claramine (FIG. 7C). Tumors in treated mice stop growing for the duration of the treatment when compared with non-treated mice. […] In addition, the involvement of IL13Rα2 and PTP1B in the tumor growth was studied using xenograft tissues. A significant increase of PTP1B phosphorylation (3-5 times) in vivo compared to cells in culture was found. […] An increased expression of IL13Rα2 in the xenografts was also noticed.

KM12SM cells [10] = test: IL-13-induced cell adhesion to Matrigel; type: cell-based, human; settings: IL-13 10 ng/ml, Claramine 2 μM, trifluoroacetate salt
Procedure: as §1, §4, §3

KM12SM cells [11] = test: Western blot of pSrc Y530 in IL-13-treated cells; type: cell-based, human; settings: 2 μM Claramine, IL13-treated KM12SM
Procedure: as §1, §5, §3

A2780 cells [12] = test: Western blot of pSrc Y530 in IL-13-treated cells; type: cell-based, human; settings: 2 μM Claramine, IL13-treated A2780
Procedure: as §1, §5, §3

U87MG cells [13] = test: Western blot of pSrc Y530 in IL-13-treated cells; type: cell-based, human; settings: 2 μM Claramine, IL13-treated U87MG
Procedure: as §1, §5, §3

KM12SM cells [14] = test: colorectal cancer liver metastasis model, intrasplenic inoculation; type: in vivo, Swiss nude mice
Procedure: as §6, §7
Finally, the in vivo effects of PTP1B silencing or inhibition in colorectal cancer and glioblastoma mouse models were investigated. Given the high homology between murine and human IL-13, it was hypothesized that it was unnecessary to treat the mice with exogenous human IL-13 (11). Fora further confirmation, human and murine IL-13 were compared in an invasion experiment. Both IL-13 promoted a similar pro-invasive capacity on human cancer cells (data not shown). Then, the effect of PTP1B silencing on the capacity for liver homing of KM12SM cells inoculated in the spleen of nude mice was examined. As a surrogate marker for homing, human GAPDH was detected in the livers of mice inoculated with control cells but not in those inoculated with PTP1B-silenced cells (FIG. 7A). Then, the effects of Claramine on mice survival in colorectal cancer metastasis were investigated. Forty-eight h after spleen inoculation with CRC cells, mice were treated intraperitoneally (i.p.) with Claramine for two weeks on alternate days, with a total dose of 49 μg/mouse.

GBM12 PDX = test: intracranial model of GBM; type: in vivo, athymic nude mice
Source text: as §6
For intracranial experiments, athymic nude male mice were purchased from Jackson Laboratories. All experiments were approved by the Northwestern University Institutional Animal Care and Use Committee (IACUC). For the intracranial implantation of cannula and tumor cells, 6-8 weeks old […] mice were first anesthetized with a ketamine HCl (25 mg/ml)/xylazine (2.5 mg/ml) cocktail. A previously established surgical procedure was utilized in this study with a small variation reflecting the cannula implantation. For that, a custom-made 26 gauge sterile guide cannula (Plastics One, Roanoke, VA) was installed into the brain through a burr hole at 2 mm depth and secured with tissue glue (3M, St Paul, MN). For the glioma PDX cells implantation, a 33-gauge sterile syringe was inserted into the guide cannula at 3 mm depth following by infusion of 2.5 μl of 10^5 GBM12 cells. The skin incision was closed with surgical glue around the implantation site. The extracranial end of the cannula was then covered with a 33-gauge protection dummy cannula. The surgical procedure was followed with a standard post-surgery care according to the approved protocol. The intracranial injection of Claramine through cannula was done in 4 fractions for a total 4-8 mg/kg starting day 7 after tumor implantation and every 3 days after that. For systemic treatment, Claramine was delivered intravenously in 4 fractions for a total 8, 15 or 30 mg/kg starting day 7 after tumor implantation and every 3 days after that. Sterile 0.9% saline solution served as a negative control in all experiments.
Finally, an intracranial model of GBM using the GBM12 PDX that expresses high amounts of IL13Rα2 was tested. Tumors were implanted intracranially for seven days before starting the treatment with four doses of Claramine for a total of 4 mg/kg or 8 mg/kg (FIG. 7E). The median survival for the treated mice increased up to 36-39 days from 27 days of the control mice.

GBM cells = test: 2-NBDG glucose uptake assay; type: cell-based, human; settings: data not shown
Procedure: Flow cytometry was performed as previously described. For IL13Rα2 internalization assays, cells were starved for 3 h, detached with 2 mM EDTA, incubated 30 min with IL-13 at 37° C., primary and secondary antibodies for 30 min at 4° C. and analyzed in the cytofluorimeter as previously described. For glucose uptake determination, cells were incubated with IL-13 and/or Claramine and subjected to the assays using 2-NBDG glucose uptake assays kit (BioVision) according to manufacturer's instructions. Glucose uptake was quantified in the cytofluorimeter.
(§8) As PTP1B silencing or Claramine treatment might modulate glucose and energy homeostasis including insulin signaling, the effect of IL-13 on the glucose uptake and insulin signaling was also investigated. IL-13 increased the glucose uptake in GMB cells but not in CRC cells (data not shown). […] The phosphorylation of insulin receptor substrate 1 (IRS-1) in CRC and GBM cells treated with IL-13 and Claramine was then studied. A strong phosphorylation of IRS-1 in U251 cells treated with IL-13 was found. In contrast, phosphorylation of IRS-1 in KM12SM cells was much weaker, without differences after IL-13 addition. […] Together, these studies support that Claramine effect on tumor cells seems to be independent of the glucose homeostasis.

[15] = type: cell-based; settings: data not shown
Procedure: as §3

[16] = MTT assay for survival to oxidative stress (IL-13 promoted cell survival); type: cell-based; settings: data not shown
Procedure: as §2, §3

KM12SM cells [17] = test: phosphorylation of insulin receptor substrate 1 (IRS-1); type: cell-based, human; settings: KM12SM cells treated with IL-13 and Claramine
Source text: as §8

U251 cells [18] = test: as above; type: cell-based, human; settings: U251 cells treated with IL-13 and Claramine
Source text: as §8

[19] = U251 cells silenced for EGFR, IL13Rα2 or control, FIG. 6B

## CC(C)CCC[C@@H](C)[C@H]1CC[C@H]2[C@@H]3C[C@@H](NCCCNCCCCNCCCN)C4C[C@@H](O)CC[C@]4(C)[C@H]3CC[C@]12C.O=C(O)C(F)(F)F (stereo partly drawn) [Claramine, (3β, 6β)-6-[[3-[[4-[(3-Aminopropyl)amino]butyl]amino]propyl]amino]-cholestan-3-ol trifluoroacetate salt]
KM12SM cells [1]
  proliferation (MTT): inhibited
U87MG cells [2]
  proliferation (MTT): inhibited
KM12SM cells [3]
  cell invasion: inhibit
A2780 cells [4]
  cell invasion: inhibit
U87MG cells [5]
  cell invasion: inhibit
U251 GBM cells; [19]
  EGFR activation: suppressed
  Src activation: suppressed
U251 GBM cells; U251 cells, FIG. 6A
  activation of EGFR (pEGFR Y1068) by EGF and IL-13: inhibited
  activation of Src (pSrc Y419) by EGF and IL-13: inhibited
KM12SM cells [6]
  cell migration: inhibit
A2780 cells [7]
  cell migration: inhibit
U87MG cells [8]
  cell migration: inhibit
U251 cells [9]; Western blot of tumor extracts
  phosphorylation of PTP1B in xenograft tissues: moderate inhibition
U251 cells [9]; during i.p. treatment with Claramine, trifluoroacetate salt
  toxicity / weight of the animals: remained constant; also recorded: No Claramine toxicity was observed
U251 cells [9]; i.p. treatment starting 15 days after implantation, 7 doses, total 2 mg/kg, trifluoroacetate salt
  tumor growth: significantly inhibited; also recorded: stop growing; also recorded: regression
KM12SM cells [10]
  IL-13-induced cell adhesion to Matrigel: inhibited; also recorded: abolished
KM12SM cells [11]
  phosphorylation of Src Tyr530: preserved
A2780 cells [12]
  phosphorylation of Src Tyr530: preserved
U87MG cells [13]
  phosphorylation of Src Tyr530: preserved
KM12SM cells [14]; KM12SM intrasplenic, p<0.001
  mice survival (Kaplan-Meier): significantly increased
KM12SM cells [14]; day 100 post-inoculation, total dose 49 μg/mouse i.p.
  state of treated mice at sacrifice: without symptoms of the disease, presence of metastatic nodes or weight loss
KM12SM cells [14]; i.p., two weeks on alternate days, total dose 49 μg/mouse, trifluoroacetate salt
  protection against liver metastases: complete protection; also recorded: complete inhibition
GBM12 PDX; GBM12 PDX intracranial, p<0.001, trifluoroacetate salt
  mice survival (Kaplan-Meier), treated versus control: significantly increased; also recorded: statistically significant difference in survival; also recorded: considerable increase
GBM12 PDX; four doses, total of 4 mg/kg or 8 mg/kg, from day 7
  survival up to: 70-72 days post-inoculation
GBM12 PDX; four doses, total of 4 mg/kg or 8 mg/kg, from day 7, control mice 27 days
  median survival: 36 to 39 days
GBM cells
  IL-13-increased glucose uptake: did not inhibit
[15]; Claramine at 2 μM
  effect on cell survival: no effect
[15]; Claramine at 5 μM
  decrease in cell survival: around 50%
[16]
  IL-13 promoted cell survival: significant reduction
KM12SM cells [17]
  IRS-1 phosphorylation: did not affect
U251 cells [18]
  IRS-1 phosphorylation: did not affect
